Results as given in the RepoRT retention time repository.

Experiments:
Settings in all cases: stereoisomer not certain
[1] = RP, Waters ACQUITY UPLC HSS T3, 0.4 mL/min; A: water + 0.01% formic acid; B: 50% water + 50% acetonitrile + 0.01% formic acid; gradient (min/%B) 0/0 0.5/0 9/30 10/50 15/100 16/100 17/0 25/0
[2] = HILIC, Waters Atlantis Premier BEH Z-HILIC, 100 × 2.1 mm, 1.7 µm, 40 °C, 0.15 mL/min, estimated dead time 1.5 min; A: water + 20 mM ammonium carbonate + 5 µM medronic acid; B: 10% water + 90% acetonitrile + 2 mM ammonium carbonate + 0.5 µM medronic acid; gradient (min/%B) 0/95 18/50 18.1/20 21.5/20 22/95 23.5/95 25.5/95
[3] = HILIC, Waters Atlantis Premier BEH Z-HILIC, 100 × 2.1 mm, 1.7 µm, 40 °C, 0.15 mL/min, estimated dead time 1.5 min; A: water + 20 mM ammonium carbonate + 5 µM medronic acid; B: 10% water + 90% acetonitrile + 2 mM ammonium carbonate + 0.5 µM medronic acid; gradient (min/%B) 0/97 18/55 18.1/20 21.5/20 22/97 23.5/97 25.5/97
[4] = RP, Waters ACQUITY UPLC BEH C18, 100 × 2.1 mm, 1.7 µm, 35 °C, 0.3 mL/min, estimated dead time 0.73 min; A: water + 0.1% formic acid, pH 3; B: methanol; gradient (min/%B) 0/10 1.6/10 2/20 6/70 7/70 14/90 17.5/90 18/95 21/95
[5] = RP, Waters ACQUITY UPLC BEH C18, 100 × 2.1 mm, 1.7 µm, 35 °C, 0.3 mL/min, estimated dead time 0.73 min; A: water + 0.1% formic acid, pH 3; B: methanol; gradient (min/%B) 0/0 1.6/0 2/20 6/70 7/70 14/90 17.5/90 18/95 21/95
[6] = RP, Waters ACQUITY UPLC BEH C18, 100 × 2.1 mm, 1.7 µm, 35 °C, 0.25 mL/min, estimated dead time 0.88 min; A: water + 0.1% acetic acid, pH 3; B: acetonitrile; gradient (min/%B) 0/10 1/10 2.5/15 4/22 6/38 9/65 12/80 16/100 19/100

| LC retention time [1] | LC retention time [2] | LC retention time [3] | SMILES | also measured |
| --- | --- | --- | --- | --- |
| 5.78 min |  |  | COC1C(O)C(CO)OC1n1cnc2c(N)ncnc21 (configuration not stated) [2'-O-methyladenosine] |  |
| 5.34 min |  |  | COC1C(O)C(CO)OC1n1cnc2c(=O)[nH]c(N)nc21 (configuration not stated) [2'-O-methylguanosine] |  |
|  | 12.5 min | 13.8 min | C=C(OP(=O)(O)O)C(=O)O [PEP] |  |
|  | 11.6 min | 12.9 min | O=C(O)C(CO)OP(=O)(O)O (configuration not stated) [Phosphoglyceric acid A] |  |
|  | 6.36 min | 7.17 min | CCC(=O)OC(CC(=O)[O-])C[N+](C)(C)C (configuration not stated) [carnitine-C3] |  |
| 4.08 min |  |  | Nc1nc2c(ncn2C2OC(CO)C(O)C2O)c(=O)[nH]1 (configuration not stated) [guanosine] |  |
| 2.04 min |  |  | O=c1ccn(C2OC(CO)C(O)C2O)c(=O)[nH]1 (configuration not stated) [uridine] |  |

Continued, molecule first:

| SMILES | LC retention time [1] | LC retention time [2] | LC retention time [3] | also measured |
| --- | --- | --- | --- | --- |
| COC1C(c2c[nH]c(=O)[nH]c2=O)OC(CO)C1O (configuration not stated) [2'-O-methylpseudouridine] | 4.95 min |  |  |  |
| COC1C(O)C(CO)OC1n1ccc(=O)[nH]c1=O (configuration not stated) [2'-O-methyluridine] | 4.79 min |  |  |  |
| O=C(O)CCC(=O)C(=O)O [2-Oxoglutaric acid] |  | 8.54 min | 9.47 min |  |
| O=C(O)CCC(O)C(=O)O (configuration not stated) [2-hydroxy glutaric acid] |  | 8.97 min | 10 min |  |
| CCCC(=O)OC(CC(=O)[O-])C[N+](C)(C)C (configuration not stated) [Butyrylcarnitine] |  |  |  | LC retention time [4]: 2.75 min |
| O=C(O)CC(O)(CC(=O)O)C(=O)O [Citric acid] |  | 12.9 min | 14.1 min |  |
| NC(CCC(=O)NC(CS)C(=O)NCC(=O)O)C(=O)O (configuration not stated) [Glutathione] |  |  |  | LC retention time [4]: 1 min; LC retention time [5]: 2 min |
| O=C(O)CC(C(=O)O)C(O)C(=O)O (configuration not stated) [Isocitric acid] |  | 12.6 min | 13.9 min |  |
| CC(O)C(=O)O (configuration not stated) [Lactic acid] |  |  |  | LC retention time [4]: 1.11 min |
| CC(C)CC(N)C(=O)O (configuration not stated) [Leucine] |  |  |  | LC retention time [4]: 1.62 min |
| CC(=O)NC(Cc1ccccc1)C(=O)O (configuration not stated) [N-acetylphenylalanine] |  |  |  | LC retention time [6]: 5 min |
| CC(C)CC(NC(=O)C(C)O)C(=O)O (configuration not stated) [N-lactoyl-leucine] |  |  |  | LC retention time [6]: 5 min |
| NC(CCC(=O)NC(CSSCC(NC(=O)CCC(N)C(=O)O)C(=O)NCC(=O)O)C(=O)NCC(=O)O)C(=O)O (configuration not stated) [Oxidized glutathione] |  |  |  | LC retention time [4]: 1.04 min; LC retention time [5]: 3 min |
| NC(Cc1ccccc1)C(=O)O (configuration not stated) [Phenylalanine] |  |  |  | LC retention time [6]: 2 min |
| NC(CCC(=O)NC(CSCO)C(=O)NCC(=O)O)C(=O)O (stereo not drawn) [S-(Hydroxymethyl)glutathione] |  |  |  | LC retention time [5]: 1.7 min |
| O=C(O)CCC(=O)O [Succinic Acid] |  | 9.06 min | 10 min |  |
| O=C(CO)COP(=O)(O)O [Triose phosphate] |  | 9.62 min | 10.7 min |  |
| Nc1ncnc2c1ncn2C1OC(CO)C(O)C1O (configuration not stated) [adenosine] | 4.57 min |  |  |  |
| Nc1ccn(C2OC(CO)C(O)C2O)c(=O)n1 (configuration not stated) [cytidine] | 0.92 min |  |  |  |
